Laboratory results from patent US11179452B2, “Antigen specific multi epitope vaccines” (priority 2006, dated 2021).
No end group written: not given here.

Key:
[1] = tested on: blood samples derived from naive donors; assay: Summary: ImMucin specific activation in blood samples of naive donors; assay type: cell-based, human; conditions: out of 14 different blood samples from naive donors
Text: In summary, out of 14 different blood samples derived from naive donors, in 12 ImMucin specific activation could be observed. It is therefore clear that ImMucin is able to induce antigen specific CD4^+ as well as CD8^+ T cell activation which can lead to effective anti-tumor vaccine properties including lysis, cytokine release and memory in the majority of the population.

[2] = tested on: ImMucin specific enriched T-cell clone; assay: ELISA of cytokine secretion during development of the ImMucin-specific T cell subpopulation by repeated stimulation (FIG. 1); assay type: cell-based, human
Text: (§1) Thawed PBLs underwent 1st stimulation with ImMucin pulsed Autologues DC at a ratio of 20:1 and cultured for 7 days in dedicated T cell Medium. T cell medium contained RPMI medium supplemented with 10% FCS, L-Glutamine, Sodium Pyruvate, MEM-EAGLE non-essential amino-acids, HEPES and Gentamycin Sulphate (Bet-Haemek Industries, IL) as well as with 50 IU/ml of recombinant IL-7 (Cytolab IL). For the second stimulation, PBL were transferred to adherent autologues ImMucin-pulsed PBMC and cultured for additional 5 days in T cell Medium. At the end of the 5 days, medium was partial replaced with fresh medium containing 1 ug/ml of ImMucin and 50 IU/ml IL-2 for a third stimulation of 48 h at 37° C. Following the last stimulation ImMucin T cell line was checked for immune activation properties.
(§2) Cytokine release was studied during the culture of stimulated T-cells. The evaluated samples were collected from the T cell culture medium on day 2, 3, and 5 and stored until use at −20° C.
(§3) […] of the selected capture antibody (e.g. anti-Hu IFN-Gamma, or anti-Hu TNF-alfa or anti IL-2) were added to each well at the final concentration of 5 μg/ml in PBS. Plates were incubated for 2 h at R.T. or over night at 4° C. Next, […] of blocking solution were added for an incubation of 2 h at R.T. […] of evaluated samples were added in duplicate into 2 wells for 2 hours at RT. After 2 h of incubation at R.T plates were washed λ4 times in washing solution. In the next step, a Biotin-conjugated detection antibody (relevant to coated antibody) was added at a final concentration of 10 μg/ml in total volume of 100 μl for 1 h at R.T. Finally, 100 μl/well working dilution (1:10000 in Blocker solution) of Streptavidin-HRP were added to each well and incubated for 1 h at R.T.
(§4) Plates were washed λ6 times with PBS-Tween (0.4%) and 100 μl/well of TMB/E Solution (CHEMICON, Catalog #ES001) was added. The plates were then exposed until blue color appeared in the wells of the positive control and no color was detected in the blank wells. To stop the color reaction, 50 μl/well of 10% of Sulfuric acid was added. The plates were counted in ELISA-Reader using a 450 nm filter.
(§5) For producing the specific T cell subpopulation PBL were stimulated three times for 7, 5 and 2 days with ImMucin presented via DC and PBMC. Following the 3rd stimulation the cells were evaluated against the different VXL epitopes.

PBMC = assay: Proliferation, direct presentation of peptide via PBMC (monocytes); assay type: cell-based, human
Protocol: Proliferation analysis was conducted in three different methods. In all three methods, plates were cultured for 3-5 days under visual control and then 0.5 […]Cu/well of 3[H] (Amersham) was added for additional culture of to 18 h at 37° C. In the last step, plates were harvested and the radioactive counts were measured in a □ counter. • 1. DC indirect presentation: In the first method, 100 µl of 2×10^6 thawed PBL were placed in U-shape Bottom 96 well plate (Nunc) with RPMI medium supplemented with 5% H AB serum, L-Glutamine, Sodium Pyruvate, MEM-EAGLE non-essential amino-acids, HEPES and Gentamycin. At the next stage 100 µl of 25×10^4 peptide-pulsed DC were added to each three wells of PBL and underwent proliferation analysis as described above. • 2. PBL direct presentation: In the 2nd method, 100 µl of 2×10^6 PBL were placed in Flat Bottom 96 well plates (Corning) and stimulated with different concentrations (0.05 ug/ml-2 ug/ml) of peptides. In the next step the cells underwent proliferation analysis as described above. • 3. PBMC direct presentation: In third method PNMC were used under similar conditions as described for the second method.
b. Direct presentation of the peptides via PBMC i.e. monocytes
Five experiments were performed according to the protocol described in material and methods with buffy-coat enriched PBLs obtained from six different naive donors (obtained from the Israeli blood bank).

[3] = tested on: T-Cell specific subpopulation (Clones); assay: ELISA of cytokine secretion by the T-cell specific subpopulation (clones) stimulated with peptides; assay type: cell-based, human; conditions: two experiments, four donors
Text: as §1, §2, §3, §4
For that purpose, an enriched ImMucin-specific T cell subpopulation was produced via repeated stimulation with ImMucin. The specificity of the subpopulation for ImMucin, as well as to the other VXL epitopes, was examined using proliferation assays, cytokine release assays, FACS analysis in which the percentage and type of cells enriched during the enrichment process was analyzed, and using a CTL assay against selected target cells.
as §5

MDA-MB-231 = assay: In vitro cytotoxic assay (CTL) of ImMucin-stimulated HLA-A2.1 positive T-cell clone; assay type: cell-based; conditions: MDA-MB-231 Human Brest Carcinoma, MUC1 +++, ratio 1:50
Protocol: (§6) Effector cells were ImMucin specific enriched T-Cell clone. Viable lymphocytes (effector cells), were centrifugation, resuspended in RPMI-HEPES medium, and admixed at different ratios with 5×10^3 35S methionine-labeled, tumor cells. CTL assays were performed in U-shaped microtiter wells, at 37° C., 5% CO2 for 5 hours. Cultures were terminated by centrifugation at 1000 rpm for 10 min at […]. A total of 100 µl of the supernatants was mixed with scintillation fluid and measured in a □□ counter (Becton Dickinson Canberra Australia). Percentage of specific lysis was calculated as follows: % lysis=(cpm in experimental well−cpm spontaneous release)/(cpm maximal release−cpm spontaneous release)×100. Spontaneous release was determined by incubation of 100 µl-labeled target cells with 100 µl of medium. Maximal release was determined by lysis of target cells in 100 µl 10% TrytonX-100.
(§7) In order to further evaluate the class II/class I cross presentation as well as the specificity and function of the T-cell clones, their class I restricted lysis potential was analyzed. For this assay the clones were screened for Class I HLA-A2.1 expression and their potential to lyse MUC1 and HLA-A2.1 positive and negative cell-lines was evaluated. […] The results summarized in Table 10 show a MUC1 as well as HLA-A2.1-restricted lysis. A breast tumor cell such as MDA-MB-231 which expresses both MUC1 and HLA-A2.1 was lysed effectively (23%), while another breast tumor cell line MDA-MB-468 which expresses only MUC1 but not the HLA-2.1 was not lysed al all. Other control cell-lines didn't manifest any lysis (see table 10).

K562 = assay: as above; assay type: cell-based; conditions: K562 Human Myalo Leukeima, MUC1 +, ratio 1:50
Protocol: as §6, §7

[4] = after the second and third stimulations with ImMucin

Sequence: MTPGTQSPFFLLLLLTVLTVV [ImMucin]
- blood samples in which ImMucin specific activation could be observed [1]: 12
- TNF-Alfa secretion ([2]; after the 3rd stimulation on day 14): completely disappeared
- IL-2 secretion from CD4+ T cells [2, 4]: increased dramatically
- INF-gamma secretion mainly from CD8+ T cells [2, 4]: increased dramatically
- TNF-Alfa secretion, peak ([2]; during the first stimulation with ImMucin (FIG. 1)): 5 ng/mL
- TNF-Alfa secretion ([2]; following a second stimulation with ImMucin): decreased
- PBL Index of stimulation (SI) via PBMC (PBMC; naive donors, representative of 5 experiments): 2
- Optimal dose via PBMC (PBMC; optimal dose required for PBL activation, average of 5 experiments, six donors): 0.05 to 1 µg/mL
- Peak of Proliferation (Hours) via PBMC (PBMC; visual inspection daily during 5 days, average of 5 experiments): 120 h
- IL-2 % of clones [3]: 83%
- INF-gamma % of clones [3]: 90%
- TNF-Alfa % of clones [3]: 90%
- TNF-Alfa Range [3]: 2.7 to 8.9 ng/mL
- Lysis % (1:50) (MDA-MB-231): 23%
- Lysis % (1:50) (K562): 1.7%
